Data set [1] has as its system U-2 OS and CHO cell lines. In words: Cellular retention and efflux characteristics test (before/after washing imaging, retaining ratio RR). Conditions: 30 min; for Experimentally observed group: U-2 OS and CHO cell lines, probe 1 μM, imaged before and 10 min after washing; for Cellular retention after washing (probe signal): CHO and U-2 OS cells, 1 uM probe. It counts as cell-based, human (U-2 OS), Chinese hamster (CHO). An excerpt: To expedite an efficient strategy for ‘tame' probe development, we set up a system to predict cellular properties of fluorescent probes via phenotypic high-throughput screening (HTS), cheminformatics and statistical analysis (Fig. 1a). As the first step, we conducted phenotypic HTS to investigate cell permeability and nonspecific binding properties of the probes in a training set. We tested about 2,085 probes consisted of a wide range photophysical properties from numerous fluorophore cores such as BODIPY[12][13][14][15], xanthone, rosamine, cyanine[19][20] and ACEMAN[21]. Their cellular influx and efflux profiles were examined in two types of mammalian cells, U-2 OS and CHO. These cell lines were chosen due to their flexibility in genetic manipulation, adaptability to various culture conditions and versatility in wide biomedical research such as gene expression, toxicity screening, recombinant protein and live cell imaging. Each of the probes was added into live cells and cell image was taken after 30 min by ImageXpress Micro cellular imaging system (Molecular Device). The cells were then washed with fresh growth media, and after another 10 min, a second image was taken to check the completeness of probe washing out of the cell. The first and second imaging facilitated influx (before washing, BW) and efflux (after washing, AW) measurements, respectively (Supplementary Fig. 1).
To measure the influx and efflux of the probes, an automated quantitative intensity-based image analysis was then performed by Multi-Wavelength Cell Scoring analysis using MetaXpress High Content Image software. Retaining ratio (RR, per cent ratio of the average intensity of AW image over BW image) was computed to classify probes into the three phenotypic groups. For each cell in the image, the nuclei and cell region were segmented to provide approximate cellular boundaries. Fluorescence intensity was then quantified on a cell-by-cell basis by the following steps: (i) selecting the image of interest, (2) specifying the width of the stained cell area, (3) adjusting the intensity above local background for detection specificity, and (4) calculating fluorescence intensity with specified reporting parameters. Average fluorescence intensity for each BW and AW images was calculated for each probes and cell lines, and was then used as input in RR calculation (Supplementary Figs 2 and 3).
U-2 OS, a human osteosarcoma cell line, and CHO, a Chinese hamster ovary cell line, (from ATCC) were cultured in Dulbecco's modified eagle's medium (DMEM) (Invitrogen, CA, USA) supplemented with fetal bovine serum (FBS) (10%) and penicillin–streptomycin (1%). Materials used in the cell culture were purchased from Invitrogen. U-2 OS and CHO cells were seeded onto 96-well plate in growth media at 37 °C in the presence of 5% CO2 and were then allowed to attach and grow to 70–80% confluence. Library probes were dissolved in dimethylsulfoxide (DMSO) to make the 1 mM solution, and stored in −20 °C. Before HTS experiment, the growth media was aspirated and replaced by 200 μl fresh growth media containing probes in final concentration of 1 μM and nuclei dye Hoechst 33342. Plates were incubated for 30 min at 37 °C then were imaged using ImageXpress Micro cellular imaging system (Molecular Device) with × 10 objective lens. Immediately after image acquisition, the cells were washed with fresh growth media, and transferred back to a 37 °C cell incubator for further incubation. After 10 min, cells were again imaged (AW image). The first imaging step allowed influx measurement of BW image , while the second imaging step allowed out-flux measurement of AW image. Images of two regions per well were acquired with DAPI, FITC, TRITC or Texas Red filter sets according to probes' excitation and emission wavelength. Experiment was performed in duplicate. Cellular retention and efflux characteristics test for other synthesized probes were also done by using the same protocol. […]

Data set [2] concerns azide-tagged intracellular organelles in U-2 OS cells. In words: Live cell SPAAC labelling of azide-tagged organelles (mitochondria, lysosome, golgi apparatus). It counts as cell-based, human. Conditions: U-2 OS cells pre-treated with TPP-Az, Sphingo-Az or Morph-Az, 2 μM probe, 1 h, 37 °C. An excerpt:
Next, we investigated intracellular imaging in live cells using CO-1. We synthesized various azide-bearing reporters: TPP-Az, a triphenylphosphonium analogue which accumulates in mitochondria; Sphingo-Az, a ceramide analogue to target golgi apparatus; and Morph-Az, an azide derivative with morpholine moiety as a directing group for lysosome (Fig. 3a). SPAAC covalent labelling reactions between CO-1 and all azide reporters in vitro were clean and rapid. We anticipated that the cell permeable CO-1 is capable of labelling any azide reporters effectively, regardless the reporters' cellular localization. We added 2 μM CO-1 to the growth media of U-2 OS cells pre-treated with TPP-Az, Sphingo-Az or Morph-Az separately. Confocal fluorescence images were then taken after probe washing.
Figure 3 Live cell imaging with CO-1. (a) Chemical structures and schematic illustration of the covalent labelling of azide-tagged organelles using CO-1 in live cells. (b) Fluorescence imaging of mitochondria, lysosome and golgi apparatus in U-2 OS cells labelled with CO-1. Cells pre-treated with TPP-Az, Morph-Az or Sphingo-Az were incubated with 2 μM CO-1 in growth media at 37 °C for 1 h and followed by counterstaining with organelle trackers. Scale bar, 15 μm. (c) Fluorescence imaging of histone H2B in live U-2 OS. U-2 OS cells were co-transfected with plasmids pIre-Azi3 and pmH2B-6-mKate2-16tag to incorporate UAA Azi into H2B-mKate2 at site 16. After Azi incorporation, cells were labelled with 10 μM CO-1 for 90 min at 37 °C. Cells were then washed and imaged. The mKate2 (red) signals were detected in cell nuclei only, and colocalized with the CO-1 (green) signals in the merged image. Scale bar, 5 μm.
U-2 OS cells were treated with 5 μM TPP-Az, in culture media for 2 h at 37 °C. After incubation, cells were washed and added with 2 μM CO-1 probe. Labelling was allowed to proceed for 1 h at 37 °C in the incubator chamber. […]
Fluorescence imaging of mitochondria, lysosome and golgi apparatus in U-2 OS cells labeled with CO-1H. […] In contrast to CO-1, high fluorescence background from CO-1H was observed. […]

Data set [3] is described as follows: Spectroscopic properties (absorbance, emission, extinction coefficient, quantum yield). In kind it is physicochemical. Conditions: 10 μM in DMSO. As for the experimental part: Supplementary Table 9. Spectrocopic properties and purity table for CO-1 and CO-1H.
Calculated mass, experimental mass, absorbance maximum (λabs), fluorescent emission maximum (λem), extinction coefficient (ε), quantum yield (Φ), and purity. mass m/z λabs λem ε Purity […]
Absorbance and fluorescence emission data were recorded by a Synergy 4, Biotek Inc. fluorescent plate reader at 10 μM concentration in DMSO in 96-well plates. HRMS a: found mass (M-H), b: tetramethyl BODIPY was used as standard, c: purity data was calculated on the basis of the integration in HPLC trace at 254 nm.

For `Cc1cc(/C=C/c2ccc(B(O)O)cc2)n2c1C(c1ccc(N)cc1)=C1C=CC=[N+]1[B-]2(F)F` [BOR-1H], the Experimentally observed group entry in data set [1] is reported as “H-group (those with RR >5% were classified into H-group)”.
Take `Cc1cc(/C=C/c2ccc(B(O)O)cc2)n2c1C(CCC(=O)N1CCOCC1)=C1C=CC(CCC(=O)N(C)C)=[N+]1[B-]2(F)F` [BOR-1]: in data set [1], the “Cellular retention after washing (probe signal)” value was “significantly decreased after washing”; the Experimentally observed group entry was “L-group (Probes (FI(BW) >200) with rapid efflux were observed to have a RR of <5%, and thus were classified into L-group)”.
For the molecule `COC(=O)c1ccc(C2=C3C(C)=CC(C)=[N+]3[B-](F)(F)n3c(/C=C/c4ccc(B(O)O)cc4)cc(C)c32)cc1` [BOR-2H], the Experimentally observed group entry in data set [1] is given as “H-group (those with RR >5% were classified into H-group)”.
Consider `Cc1cc(C)n2c1C(CCC(=O)N1CCOCC1)=C1C=CC(CCC(=O)NCCC(=O)N3Cc4ccccc4C#Cc4ccccc43)=[N+]1[B-]2(F)F` [CO-1H], for which the “Fluorescence background after washing” value in data set [2] is “high-fluorescence background”. Further, in data set [3], the ε was determined as 83333 M⁻¹ cm⁻¹, the λabs was determined as 500 nm and the λem was determined as 520 nm. Further, in data set [3] (tetramethyl BODIPY as standard), the “QY (Φ)” value turned out to be 0.83. Further, in data set [1], the “Cellular retention after washing (probe signal)” value is recorded as “retained inside the cells” and the Experimentally observed group result is given as “H-group (those with RR >5% were classified into H-group)”.
For `NCCNC1=C2C=CC=[N+]2[B-](F)(F)n2cccc21` [CS-2], the Experimentally observed group result in data set [1] is “L-group (Probes (FI(BW) >200) with rapid efflux were observed to have a RR of <5%, and thus were classified into L-group)”.
In the case of `CCc1c(C)c2n(c1C)[B-](F)(F)[N+]1=CC=CC1=C2SC` [CS-3], the Experimentally observed group result in data set [1] is “L-group (Probes (FI(BW) >200) with rapid efflux were observed to have a RR of <5%, and thus were classified into L-group)”.
Consider `CCc1c(C)c2n(c1C)[B-](F)(F)[N+]1=CC=CC1=C2` [CS-8], for which the Experimentally observed group result in data set [1] is “L-group (Probes (FI(BW) >200) with rapid efflux were observed to have a RR of <5%, and thus were classified into L-group)”.
Still for that read-out and setting: the value for `COC1=C2C=CC(C)=[N+]2[B-](F)(F)n2c(C)ccc21` [CS-11] was “L-group (Probes (FI(BW) >200) with rapid efflux were observed to have a RR of <5%, and thus were classified into L-group)”; that for `F[B-]1(F)n2cccc2C(N2CCOCCOCCOCC2)=C2C=CC=[N+]21` [CS-13] was “L-group (Probes (FI(BW) >200) with rapid efflux were observed to have a RR of <5%, and thus were classified into L-group)”.
As for `F[B-]1(F)n2cccc2C(N2CCOCCOCCOCCOCC2)=C2C=CC=[N+]21` [CS-14], the Experimentally observed group result in data set [1] is “N-group (Probes in which BW images having FI(BW) ≤200 were classified as N-group)”.
In the case of `CC1=[N+]2C(=C(N3CCNCC3)c3ccc(C)n3[B-]2(F)F)C=C1` [CS-42], the Experimentally observed group result in data set [1] is “L-group (Probes (FI(BW) >200) with rapid efflux were observed to have a RR of <5%, and thus were classified into L-group)”.
Still for that read-out and setting: the same measure for `CCOC(=O)CCNC1=C2C=CC(CC)=[N+]2[B-](F)(F)n2c(CC)ccc21` [CS-56]: “L-group (Probes (FI(BW) >200) with rapid efflux were observed to have a RR of <5%, and thus were classified into L-group)”; for `CC(C)(C)NC1=C2C=CC=[N+]2[B-](F)(F)n2cccc21` [CS-101]: “L-group (Probes (FI(BW) >200) with rapid efflux were observed to have a RR of <5%, and thus were classified into L-group)”.

Source of the values: PMC4915154, “Development of background-free tame fluorescent probes for intracellular live cell imaging” (Nature Communications, 2016).
